In the NIST ThermoML archive (doi:10.1016/j.tca.2009.06.015):

What was measured:
[1] = xn = mol fraction of the nth substance listed; settings: 101 kPa, Liquid; for viscosity: Capillary tube (Ostwald / Ubbelohde) method; for mass density: Vibrating tube method
[2] = refractive index (Na D-line) (dimensionless); xn = mol fraction of the nth substance listed; settings: 101 kPa, Liquid, Standard Abbe refractometry

CCC(C)O (stereo unspecified) [butan-2-ol] + CC#N
Settings	mass density, [1] [kg/m3]	refractive index, [2]	viscosity, [1] [mPa·s]
293.15 K, x2 = 0	806.57	1.3966	3.912
293.15 K, x2 = 0.0844	804.53	1.3952	2.503
293.15 K, x2 = 0.1644	802.5	1.393	1.654
293.15 K, x2 = 0.2516	800.41	1.3899	1.376
293.15 K, x2 = 0.3369	798.33	1.386	1.089
293.15 K, x2 = 0.4444	795.68	1.3804	0.8564
293.15 K, x2 = 0.5382	793.35	1.3751	0.6953
293.15 K, x2 = 0.6425	790.7	1.3686	0.5565
293.15 K, x2 = 0.761	788.1	1.361	0.4636
293.15 K, x2 = 0.8715	785.92	1.3534	0.3984
293.15 K, x2 = 0.9588	783.48	1.3467	0.3663
298.15 K, x2 = 0	802.56	1.3946	3.132
298.15 K, x2 = 0.0844	800.28	1.3918	2.135
298.15 K, x2 = 0.1644	798.07	1.3893	1.574
298.15 K, x2 = 0.2516	795.79	1.3865	1.218
298.15 K, x2 = 0.3369	793.63	1.383	0.992
298.15 K, x2 = 0.4444	790.96	1.3782	0.7937
298.15 K, x2 = 0.5382	788.5	1.3734	0.6498
298.15 K, x2 = 0.6425	785.67	1.3674	0.518
298.15 K, x2 = 0.761	782.65	1.3597	0.4216
298.15 K, x2 = 0.8715	779.99	1.3518	0.3868
298.15 K, x2 = 0.9588	777.71	1.3448	0.3632
303.15 K, x2 = 0	798.26	1.3924	2.534
303.15 K, x2 = 0.0844	795.95	1.3902	1.794
303.15 K, x2 = 0.1644	793.74	1.3886	1.383
303.15 K, x2 = 0.2516	791.38	1.386	1.082
303.15 K, x2 = 0.3369	789.07	1.3829	0.8873
303.15 K, x2 = 0.4444	786.17	1.3779	0.7129
303.15 K, x2 = 0.5382	783.62	1.3722	0.5936
303.15 K, x2 = 0.6425	780.73	1.3656	0.4865
303.15 K, x2 = 0.761	777.45	1.3575	0.4019
303.15 K, x2 = 0.8715	774.43	1.3495	0.3612
303.15 K, x2 = 0.9588	772.05	1.3426	0.3414
308.15 K, x2 = 0	793.96	1.3905	2.172
308.15 K, x2 = 0.0844	791.55	1.3876	1.572
308.15 K, x2 = 0.1644	789.27	1.3853	1.213
308.15 K, x2 = 0.2516	786.77	1.3825	0.9642
308.15 K, x2 = 0.3369	784.37	1.3799	0.8021
308.15 K, x2 = 0.4444	781.35	1.3753	0.6524
308.15 K, x2 = 0.5382	778.69	1.3713	0.5479
308.15 K, x2 = 0.6425	775.68	1.3659	0.4533
308.15 K, x2 = 0.761	772.27	1.3592	0.379
308.15 K, x2 = 0.8715	768.99	1.351	0.3437
308.15 K, x2 = 0.9588	766.51	1.3423	0.3238

CCCCCC(C)O (stereo unspecified) [2-heptanol] + CC#N
Settings	mass density, [1] [kg/m3]	refractive index, [2]	viscosity, [1] [mPa·s]
293.15 K, x2 = 0	817.18	1.4206	6.52
293.15 K, x2 = 0.1142	814.97	1.417	4.326
293.15 K, x2 = 0.1947	813.16	1.4145	3.337
293.15 K, x2 = 0.251	811.78	1.4124	2.77
293.15 K, x2 = 0.3491	809.24	1.4094	2.133
293.15 K, x2 = 0.4525	806.32	1.4042	1.584
293.15 K, x2 = 0.5436	803.52	1.3986	1.239
293.15 K, x2 = 0.6702	798.9	1.3881	0.8636
293.15 K, x2 = 0.7574	795.18	1.3793	0.6732
293.15 K, x2 = 0.877	789.27	1.3637	–
293.15 K, x2 = 0.9588	784.77	1.3516	0.3857
298.15 K, x2 = 0	813.33	1.4188	5.33
298.15 K, x2 = 0.1142	811.07	1.4158	3.583
298.15 K, x2 = 0.1947	809.19	1.4146	2.821
298.15 K, x2 = 0.251	807.74	1.4129	2.402
298.15 K, x2 = 0.3491	805	1.4094	1.853
298.15 K, x2 = 0.4525	802.07	1.4039	1.395
298.15 K, x2 = 0.5436	799.12	1.3979	1.106
298.15 K, x2 = 0.6702	794.43	1.3873	0.7855
298.15 K, x2 = 0.7574	790.57	1.3781	0.6191
298.15 K, x2 = 0.877	784.26	1.3629	–
298.15 K, x2 = 0.9588	779.64	1.3503	0.3652
303.15 K, x2 = 0	809.44	1.4165	4.301
303.15 K, x2 = 0.1142	807.06	1.4154	3.03
303.15 K, x2 = 0.1947	805.14	1.4147	2.409
303.15 K, x2 = 0.251	803.62	1.4135	2.066
303.15 K, x2 = 0.3491	800.93	1.4093	1.619
303.15 K, x2 = 0.4525	797.79	1.4029	1.251
303.15 K, x2 = 0.5436	794.69	1.3973	0.9893
303.15 K, x2 = 0.6702	789.88	1.3863	0.7174
303.15 K, x2 = 0.7574	786	1.3774	0.5762
303.15 K, x2 = 0.877	779.5	1.362	–
303.15 K, x2 = 0.9588	774.36	1.3481	0.3483
308.15 K, x2 = 0	805.5	1.4143	3.528
308.15 K, x2 = 0.1142	803.17	1.4139	2.578
308.15 K, x2 = 0.1947	801.12	1.413	2.072
308.15 K, x2 = 0.251	799.49	1.4116	1.816
308.15 K, x2 = 0.3491	796.53	1.4079	1.466
308.15 K, x2 = 0.4525	793.31	1.4022	1.112
308.15 K, x2 = 0.5436	790.11	1.3958	0.8985
308.15 K, x2 = 0.6702	785.23	1.3845	0.6625
308.15 K, x2 = 0.7574	781.16	1.3744	0.539
308.15 K, x2 = 0.877	774.15	1.3576	0.4454
308.15 K, x2 = 0.9588	768.93	1.3452	0.3326

CCCC(C)O (stereo unspecified) [pentan-2-ol] + CC#N
Settings	mass density, [1] [kg/m3]	refractive index, [2]	viscosity, [1] [mPa·s]
293.15 K, x2 = 0	809.29	1.406	4.298
293.15 K, x2 = 0.116	806.75	1.4035	2.544
293.15 K, x2 = 0.1727	805.46	1.402	2.093
293.15 K, x2 = 0.2827	802.79	1.3981	1.534
293.15 K, x2 = 0.3546	801.01	1.3951	1.262
293.15 K, x2 = 0.4458	798.66	1.3908	1.008
293.15 K, x2 = 0.5366	796.26	1.3858	0.81
293.15 K, x2 = 0.6488	793.09	1.3779	0.6391
293.15 K, x2 = 0.7671	789.52	1.3674	0.5048
293.15 K, x2 = 0.8793	786.03	1.3561	0.4119
293.15 K, x2 = 0.9578	783.59	1.3478	0.3705
298.15 K, x2 = 0	805.24	1.4045	3.478
298.15 K, x2 = 0.116	802.61	1.4012	2.17
298.15 K, x2 = 0.1727	801.25	1.3999	1.804
298.15 K, x2 = 0.2827	798.55	1.3965	1.362
298.15 K, x2 = 0.3546	796.68	1.3941	1.125
298.15 K, x2 = 0.4458	794.17	1.3901	0.9044
298.15 K, x2 = 0.5366	791.6	1.3848	0.7392
298.15 K, x2 = 0.6488	788.28	1.3764	0.5884
298.15 K, x2 = 0.7671	784.54	1.3657	0.4715
298.15 K, x2 = 0.8793	780.88	1.3548	0.391
298.15 K, x2 = 0.9578	778.28	1.3461	0.3537
303.15 K, x2 = 0	801.13	1.3724	–
303.15 K, x2 = 0.116	798.39	1.3715	1.474
303.15 K, x2 = 0.1727	796.93	1.3707	1.288
303.15 K, x2 = 0.2827	794.05	1.3694	1.069
303.15 K, x2 = 0.3546	792.08	1.3684	0.9367
303.15 K, x2 = 0.4458	789.54	1.3666	0.7975
303.15 K, x2 = 0.5366	786.91	1.3641	0.6615
303.15 K, x2 = 0.6488	783.41	1.3608	0.5492
303.15 K, x2 = 0.7671	779.52	1.3561	0.4429
303.15 K, x2 = 0.8793	775.68	1.35	0.3617
303.15 K, x2 = 0.9578	772.96	1.3433	0.3311
308.15 K, x2 = 0	796.94	1.3703	–
308.15 K, x2 = 0.116	794.1	1.3694	1.296
308.15 K, x2 = 0.1727	792.65	1.3687	1.15
308.15 K, x2 = 0.2827	789.63	1.3679	0.9576
308.15 K, x2 = 0.3546	787.6	1.367	0.846
308.15 K, x2 = 0.4458	784.92	1.3657	0.7168
308.15 K, x2 = 0.5366	782.17	1.3637	0.6057
308.15 K, x2 = 0.6488	778.55	1.3605	0.5051
308.15 K, x2 = 0.7671	774.47	1.3557	0.4111
308.15 K, x2 = 0.8793	770.45	1.3491	0.3442
308.15 K, x2 = 0.9578	767.48	1.3417	0.3202
